Reference: article PMC12518634, “The noncanonical function of liver-type phosphofructokinase potentiates the efficacy of HDAC inhibitors in cancer” (Signal Transduction and Targeted Therapy, 2025)
Structures can show the parent of a compound that is named as a salt. Where two headings read alike, the source gives them in different places.

Experiments:
783C-6 = assay: High-throughput drug screen, CellTiter-Glo viability, 72 h; assay type: cell-based, human; parameters: AUC: scale not given here; conditions: for AUC: area under the dose-response curve; for EC50: 72 h, read-out: EC50
Description: (§1) The cells were seeded and incubated with a gradient of concentrations of drugs for 72 h, after which the cell viability was assessed (Supplementary Fig. 1a). The drug library primarily comprises epigenetic drugs, including HDAC inhibitors, DNA methyltransferase inhibitors, and histone demethylase inhibitors, as well as conventional chemotherapies and kinase inhibitors (Supplementary Fig. 1b and Supplementary Table 1). […] To identify novel therapeutics against CCA, we conducted a high-throughput screen employing PerkinElmer’s integrated robotic Explorer G3 workstations. […] Following dilution to five specified concentrations, drugs were dispensed into 96-well plates in the sequence detailed in Supplementary Fig. 1a. The CCA cell lines were subsequently plated in 384-well plates at a density of 3000 cells per well in a 20 μL total volume. After a 24-h incubation, the compounds were added to the wells and incubated for 72 h. We then quantified cell viability via the CellTiter-Glo luminescent assay according to the manufacturer’s protocol. Signal detection was carried out on a Synergy2 plate reader operated by Gen5 software (BioTek). For data processing, the raw luminescence data were processed through the Breeze pipeline for curve fitting, yielding quality control metrics (e.g., Z-factors) and drug response parameters (AUC and DSS), as adapted from previous work.[54] Drug responses were evaluated on the basis of the drug sensitivity score (DSS), and a cutoff of ≥10 was used to define efficacy. The complete drug library and screening dataset are available in Supplementary Tables 1-3.
(§2) Supplementary Fig. 1. A high-throughput drug screen to identify drugs targeting CCA. a Schematic representation of the drug screening protocol. […] Each drug was tested at five different concentrations (10, 1, 0.1, 0.01, and 0.001 μM), and each treatment was replicated twice. b Classification of drugs used for screening.

1405R3 = assay: as above; assay type: cell-based, human; parameters: AUC: scale not given here; conditions: for AUC: area under the dose-response curve; for MIN: lower asymptote of fitted dose-response curve; for EC50: 72 h, fitted dose-response curve, Min.Conc.tested 1, Max.Conc.tested 10000, read-out: EC50; for SLOPE: slope of fitted dose-response curve
Description: as §1, §2

[1] = 783C-6 DSRT analysis, DSS calculated from the dose-response curve
[2] = 783C-6 DSRT analysis, MIN of the fitted dose-response curve
[3] = 783C-6 cells, DSS of DSRT analysis
[4] = 783C-6 cells, minimum of dose-response curve
[5] = 783C-6 cells, slope of fitted dose-response curve
[6] = 1405R3 DSRT analysis, drug sensitivity score
[7] = 783C-6 DSRT analysis, CellTiter-Glo viability, fitted dose-response curve, Min.Conc.tested 1, Max.Conc.tested 10000
[8] = 783C-6 DSRT analysis, slope of the fitted dose-response curve
[9] = 1405R3 DSRT analysis, CellTiter-Glo
[10] = Homo sapiens, 1405R3 DSRT analysis, CellTiter-Glo viability, GI50
[11] = Homo sapiens, 1405R3 DSRT analysis, CellTiter-Glo

Compound | DSS (783C-6; [1]) | MIN (783C-6; [2]) | AUC (783C-6; 783C-6 DSRT analysis) | DSS (1405R3; 1405R3 DSRT analysis, DSS) | AUC (1405R3; 1405R3 DSRT analysis) | MIN (1405R3; 1405R3 DSRT analysis) | DSS (783C-6; [3]) | AUC (783C-6; 783C-6 cells) | MIN (783C-6; [4]) | DSS (1405R3; [6]) | SLOPE (1405R3; 1405R3 DSRT analysis) | also measured
C=CC(=O)Nc1cc2c(Nc3ccc(F)c(Cl)c3)ncnc2cc1OCCCN1CCOCC1 [Canertinib] | 0 | 75.6 | 7.4 | 0 | 33.5 | 78.5 |  |  |  |  |  | 
CCCCNNC(=O)c1ccc(-c2cccc(F)c2F)cc1 [SR-4370] |  |  |  |  | 63.7 | 6.9 | 6.1 | 54.2 | 7.5 | 7.2 | -2.5 | EC50 (783C-6; 783C-6 cells, DSRT analysis, CellTiter-Glo viability, concentrations tested 1 to 10000 (unit inferred), GI50): 2.63 µM; SLOPE (783C-6; [5]): -2.5; EC50 (1405R3; 1405R3 DSRT analysis, CellTiter-Glo viability, GI50): 2.08 µM
Cc1csc(-c2nnc(Nc3ccc(Oc4ncccc4-c4ccnc(N)n4)cc3)c3ccccc23)c1 [AMG-900] | 4.1 | 63.4 | 52.5 | 0.2 | 29 | 82.3 |  |  |  |  |  | EC50 (783C-6; Homo sapiens): 0.483 µM
Cc1ccc(F)c(NC(=O)Nc2ccc(-c3cccc4[nH]nc(N)c34)cc2)c1 [Linifanib] | 3.9 | 68.4 | 53 | 0 | 3.9 | 97.4 |  |  |  |  |  | EC50 (783C-6; Homo sapiens): 0.255 µM
C#Cc1cccc(Nc2ncnc3cc(OCCOC)c(OCCOC)cc23)c1 [Erlotinib HCl] | 0 | 77 | 6.9 | 0 | 27.3 | 82.4 |  |  |  |  |  | 
Cn1cc(-c2ccc(S(=O)(=O)n3ccc(/C=C/C(=O)Nc4ccccc4N)c3)cc2)cn1 [4SC-202] | 6.7 | 48.6 | 57 | 3.9 | 35.8 | 57.9 |  |  |  |  | -2.3 | EC50 (783C-6; [7]): 0.78 µM; SLOPE (783C-6; [8]): -2.5; EC50 (1405R3; [9]): 1.42 µM
CC(C)(C)OC(=O)Nc1ccc(-c2cc(C(=O)NCCCCCCC(=O)NO)no2)cc1 [CAY10603] | 4.4 | 30.8 | 39.5 | 5 | 45.4 | 20.6 |  |  |  |  | -2.5 | EC50 (783C-6; [7]): 2.73 µM; SLOPE (783C-6; [8]): -2.5; EC50 (1405R3; [9]): 2.72 µM
CCN1CCN(C(=O)Cc2ccc(Nc3ncc(F)c(Nc4ccc(C(=O)Nc5ccccc5Cl)cc4)n3)cc2)CC1 [Aurora A Inhibitor I] | 4.6 | 32 | 41.2 | 3 | 28 | 50 |  |  |  |  | -2.5 | EC50 (783C-6; [7]): 2.51 µM; SLOPE (783C-6; [8]): -2.5; EC50 (1405R3; [9]): 2.81 µM
CCCC(CCC)C(=O)O [Valproic acid sodium salt] |  |  |  |  | 8.4 | 92.2 | 0 | 4.4 | 85.4 | 0 |  | 
COc1cc2ncnc(Nc3ccc(F)c(Cl)c3)c2cc1OCCCN1CCOCC1 [Gefitinib] | 2.5 | 77.5 | 27 | 3.6 | 33.5 | 70.6 |  |  |  |  |  | 
Cc1sc2c(c1C)C(c1ccc(Cl)cc1)=N[C@@H](CC(=O)Nc1ccc(O)cc1)c1nnc(C)n1-2 [OTX015] |  |  |  |  | 90.2 | 24.3 | 0 | 6.1 | 90.3 | 10.4 |  | EC50 (1405R3; [10]): 0.649 µM
CCCCc1nc2cc(/C=C/C(=O)NO)ccc2n1CCN(CC)CC [Pracinostat] |  |  |  |  | 75.5 | 3.4 | 7.3 | 64.3 | 3.1 | 8.7 |  | EC50 (783C-6; Homo sapiens): 2.19 µM; EC50 (1405R3; [10]): 1.66 µM
O=C(O)CCCc1ccccc1 [Benzenebutyric acid] | 0 | 96.8 | 1.4 | 0 | 2.3 | 94.7 |  |  |  |  | -0.7 | SLOPE (783C-6; [8]): -0.7
CC(C)N(CCCNC(=O)Nc1ccc(C(C)(C)C)cc1)C[C@H]1O[C@@H](n2ccc3c(N)ncnc32)[C@H](O)[C@@H]1O [EPZ004777] | 0 | 97.4 | 0.7 | 0 | 0.5 | 98.8 |  |  |  |  |  | 
O=C(O)c1ccc(Nc2ncc3c(n2)-c2ccc(Cl)cc2C(c2c(F)cccc2F)=NC3)cc1 [MLN8054] | 0 | 70.8 | 8.8 | 0 | 6.8 | 90.2 |  |  |  |  |  | 
O=C1CCc2c(ccc3ccccc23)O1 [Splitomicin] |  |  |  |  | 3.1 | 95.1 | 0 | 7.8 | 95 | 0 |  | 
Cc1cc(C)cc(C(=O)NOCCCCCC(=O)NO)c1 [LMK-235] | 9.8 | 3.5 | 84.5 | 11.6 | 101.6 | 2 |  |  |  |  | -1.7 | EC50 (783C-6; [7]): 1.33 µM; SLOPE (783C-6; [8]): -2.5; EC50 (1405R3; [9]): 0.927 µM
C[C@@H]1COC(Nc2ccc3ncnc(Nc4ccc(OCc5nccs5)c(Cl)c4)c3c2)=N1 [Varlitinib] |  |  |  |  | 11.5 | 91.8 | 1.5 | 22.8 | 79.7 | 0 |  | 
AR-42 | 10.5 | 2.3 | 96.3 | 11 | 98.5 | 1.2 |  |  |  |  | -1.5 | EC50 (783C-6; [7]): 1.08 µM; SLOPE (783C-6; [8]): -1.3; EC50 (1405R3; [9]): 1.03 µM
Cc1cc(Nc2cc(N3CCN(C)CC3)nc(Sc3ccc(NC(=O)C4CC4)cc3)n2)[nH]n1 [Tozasertib] |  |  |  |  | 19.9 | 76.4 | 4.1 | 41.4 | 78.1 |  |  | DSS (1405R3): 1.8
NC(=O)C1CCCc2c1[nH]c1ccc(Cl)cc21 (stereo not shown) [Selisistat] |  |  |  |  | 1 | 97.8 | 0 | 11.9 | 93.6 | 0 | -0.6 | SLOPE (783C-6; [5]): -0.1
CCN(CC)Cc1ccc2cc(COC(=O)Nc3ccc(C(=O)NO)cc3)ccc2c1 [Givinostat] | 9.2 | 1.5 | 81.1 | 9.2 | 79.9 | 1.5 |  |  |  |  |  | EC50 (783C-6; Homo sapiens): 1.52 µM; EC50 (1405R3; [11]): 1.55 µM
COc1cc2nc(N3CCCC3)nc(NCCCCCN3CCCC3)c2cc1OC [UNC0379] |  |  |  |  | 39.7 | 76.2 | 3.2 | 30.1 | 55.3 | 1.9 | -0.4 | SLOPE (783C-6; [5]): -2.5
O=C(Nc1ccc(O)c(C(=O)O)c1)c1cccc(NC(=O)c2ccco2)c1 [OSS_128167] |  |  |  |  | 8.4 | 94.6 | 0 | 7.3 | 92.5 | 0 | -0.1 | SLOPE (783C-6; [5]): -0.3
O=C(CCCCCCNC(=O)c1cnc(N(c2ccccc2)c2ccccc2Cl)nc1)NO [Citarinostat] | 3.4 | 50.9 | 31.7 | 3.5 | 32.3 | 46.8 |  |  |  |  |  | EC50 (783C-6; Homo sapiens): 2.28 µM; EC50 (1405R3; [11]): 2.5 µM
CC(=O)Nc1ccc(C(=O)Nc2ccc(F)cc2N)cc1 [BRD3308] | 0 | 86.9 | 3.9 | 0 | 12.9 | 91.7 |  |  |  |  | -0.1 | SLOPE (783C-6; [8]): -1
